# PubChem BioAssay (NCI)
# Where “and” joins values, the source holds several entries; their conditions need not be identical. Identical values can stand only once.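 A five-concentration, 48-hour dose response in 96-well plates underlies each endpoint, interpolated linearly between surrounding concentrations. Here, GI50 denotes the concentration required for 50% inhibition of growth. TGI: concentration producing complete growth inhibition.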
# Tests used:
# Assay in all cases: DTP human tumour cell line panel, 48 h
# A498 renal = system: A498 renal
# ACHN renal = system: ACHN renal
# EKVX NSCLC = system: EKVX NSCLC
# HT29 colon = system: HT29 colon
# K-562 leukemia = system: K-562 leukemia
# MDA-MB-231 breast = system: MDA-MB-231 breast
# MOLT-4 leukemia = system: MOLT-4 leukemia
# OVCAR-5 ovarian = system: OVCAR-5 ovarian
# RPMI-8226 leukemia = system: RPMI-8226 leukemia
# TK-10 renal = system: TK-10 renal
SMILES,GI50 (A498 renal),TGI (A498 renal) [µM],GI50 (ACHN renal) [µM],TGI (ACHN renal) [µM],GI50 (EKVX NSCLC) [µM],TGI (EKVX NSCLC) [µM],GI50 (HT29 colon) [µM],TGI (HT29 colon) [µM],GI50 (K-562 leukemia) [µM],TGI (K-562 leukemia) [µM],GI50 (MDA-MB-231 breast) [µM],TGI (MDA-MB-231 breast) [µM],GI50 (MOLT-4 leukemia) [µM],TGI (MOLT-4 leukemia) [µM],GI50 (OVCAR-5 ovarian) [µM],TGI (OVCAR-5 ovarian) [µM],GI50 (RPMI-8226 leukemia) [µM],TGI (RPMI-8226 leukemia) [µM],GI50 (TK-10 renal) [µM],TGI (TK-10 renal) [µM]
O=P(O)(O)OC1C(OP(=O)(O)O)C(OP(=O)(O)O)C(OP(=O)(O)O)C(OP(=O)(O)O)C1OP(=O)(O)O (configuration not stated),> 500 µM and 1190 µM,> 2000,> 1700,> 2000,> 100,> 2000,> 2000,> 2000,> 2000,> 2000,> 2000,> 2000,> 1510,> 2000,> 2000,> 2000,> 2000,> 2000,> 1360,> 2000
COc1c2occc2c(OC)c2c(=O)c(S(=O)(=O)NC(=O)Nc3ccc(Cl)cc3)coc12,–,> 10,–,> 10,–,> 10,–,> 10,–,> 10,–,> 10,–,> 10,–,> 10,–,> 10,–,> 10
CC1CN(CCO)CC(C)O1 (configuration not stated),–,> 100,–,> 100,–,> 100,–,> 100,–,> 100,–,> 100,–,> 100,–,> 100,–,> 100,–,> 100
Cc1ncc(C(=O)Nc2ccc(CN3CCN(C)CC3)c(C(F)(F)F)c2)cc1C#Cc1c(N)ncc2ccc(C#N)cc12,1.21 µM,4.55,0.293,3.35,0.54,> 22.8,0.0293,7.74,0.005,5.3,0.161,1.89,1.03,19.4,1.25,10.9,1.21,9.18,3.08,12.2
CC/C(=C(\c1ccccc1)c1ccc(OCCN(C)C)cc1)c1ccccc1,2.3 µM,–,–,–,4.74,–,1.17,–,1.84,–,3.59,–,–,–,6.76,–,1.2,–,–,–
COc1ccc(C2SC(N)=Nc3c2c(C)nn3C(=O)c2ccncc2)cc1 (configuration not stated),–,> 100,–,> 100,–,> 100,–,> 100,–,> 100,–,> 100,–,> 100,–,> 100,–,> 100,–,> 100
CCOC(=O)c1cc2c(n1Cc1cccc(OC)c1)-c1oncc1CC2,0.156 µM,3.39,2.66,> 100,9.1,> 100,0.37,15.8,0.343,> 100,4.87,> 100,1.16,> 100,17.9,> 100,3.52,> 100,7.51,> 100
Cc1cc2c(-c3nc4ccccc4[nH]3)c(O)c(O)cc2c(O)c1-c1c(C)cc2c(-c3nc4ccccc4[nH]3)c(O)c(O)cc2c1O,0.00875 µM,0.0374,0.0292,0.697,0.0315,> 28.9,0.0217,> 24.4,0.0199,> 50,0.0835,> 38.9,0.019,> 50,0.0852,> 20.3,0.0323,22.3,0.0386,> 42.1
N#Cc1c(N)nn(C(=O)c2ccc(NC(=O)c3ccccn3)cc2)c1-c1ccc(Cl)cc1,15.1 µM,> 100,3.48,15.5,6.96,> 100,3.55,> 100,6.62,> 100,11.6,> 100,25.7,> 100,8.65,> 100,> 100,> 100,3.65,19.4
N/C(=N\N=C\c1ccc2c(c1)OCO2)NO,–,56.5,–,47.9,–,> 100,–,> 100,–,50.7,–,> 100,–,77.5,–,> 100,–,56.9,–,> 100
NC(=O)C/C=C/CC(N)=O,–,> 100,–,> 100,–,> 100,–,> 100,–,–,–,> 100,–,–,–,> 100,–,> 100,–,> 100
Cc1cc(Cl)n2c(nc3ccccc32)c1C#N,4.18 µM,17.7,0.567,1.84,7.84,24.8,–,–,0.256,61.3,0.649,4.58,1.06,22.8,0.83,10.8,0.231,2.45,0.898,10.9
O=C(Cn1ccnc1[N+](=O)[O-])NCCO,–,> 100,–,> 100,–,> 100,–,> 100,–,> 100,–,> 100,–,–,–,> 100,–,> 100,–,> 100
